For the first test, the system named is Staphylococcus aureus.
Assay: not given
The note with it: reported in Non Patent Literature 1; cited from earlier work.
For the compound `CCCCCCCC/C=C\CCCCCC(=O)O` [7-cis-hexadecenoic acid], the “selective antibacterial activity (S. aureus versus S. epidermidis)” value is “selective antibacterial activity similar to sapienic acid”.
Turning to `CCCCCC/C=C\CCCCCCCC(=O)O` [palmitoleic acid], the “selective antibacterial activity (S. aureus versus S. epidermidis)” value is “selective antibacterial activity similar to sapienic acid”.
`CCCCCCCCC/C=C\CCCCC(=O)O` [sapienic acid]: the “antibacterial activity against Staphylococcus aureus” value was “strong antibacterial activity”.

The next test relates to Staphylococcus aureus.
Assay: not given
As to conditions: 7-cis-hexadecenoic acid itself; cited from earlier work.
In the case of `CCCCCCCC/C=C\CCCCCC(=O)O` [7-cis-hexadecenoic acid], the “MIC against Staphylococcus aureus” value is recorded as “about 3 μg/mL”.

For another test, the system named is Staphylococcus epidermidis.
Assay: not given
The note with it: reported in Non Patent Literature 1; cited from earlier work.
For `CCCCCCCCC/C=C\CCCCC(=O)O` [sapienic acid], the “antibacterial activity against Staphylococcus epidermidis” value is “not against Staphylococcus epidermidis”.

For a further test, the system named is Bifidobacterium sp. strain JCM7042. The test is described as follows: Effect of components added to TOS liquid medium on bifidobacteria growth and 7-cis-C16:1 production. The format is cell-based. As to conditions: component added to TOS liquid medium, amount per liter (0.1 to 10 g); compared to control without the component; 37° C.
In the case of `O=C([O-])[O-].[Ca+2]` [Calcium Carbonate], the “7-cis-C16:1 Production” value is on record as “Fair” and the “Bifidobacteria Growth” value is reported as “Excellent”.
Take `Cl.N[C@@H](CS)C(=O)O.O` [L-Cysteine Hydrochloride (1-hydrate)]: the “7-cis-C16:1 Production” value is given as “Excellent” and the “Bifidobacteria Growth” value is “Excellent”.
As for `CCCCCCCCCCCC(=O)O` [Lauric Acid (free form), Lauric Acid], the “7-cis-C16:1 Production” value is “Poor” and the “Bifidobacteria Growth” value is “Poor”.
`CCCCCCCCCCCC(=O)OC` [Lauric Acid Methyl Ester]: the “7-cis-C16:1 Production” value was “Good” and the “Bifidobacteria Growth” value is “Good”.
Take `CCCCCCCCCCCCCC(=O)O` [Myristic Acid (free form), Myristic Acid]: the “7-cis-C16:1 Production” value is reported as “Poor” and the “Bifidobacteria Growth” value is reported as “Poor”.
On to `CCCCCCCCCCCCCC(=O)OC` [Myristic Acid Methyl Ester], for which the “7-cis-C16:1 Production” value is “Poor” and the “Bifidobacteria Growth” value is on record as “Poor”.
Consider `CCCCCCCC/C=C\CCCCCCCC(=O)O` [Oleic Acid (free form), Oleic Acid], for which the “7-cis-C16:1 Production” value is “Poor” and the “Bifidobacteria Growth” value is given as “Fair”.
The matching figures for `CCCCCCCC/C=C\CCCCCCCC(=O)OC` [Oleic Acid Methyl Ester]: “Good” and “Excellent”.
On to `O=C(O)CC(=O)C(=O)O` [Oxaloacetic Acid], for which the “7-cis-C16:1 Production” value is on record as “Poor” and the “Bifidobacteria Growth” value is reported as “Good”.
For the compound `CCCCCCCCCCCCCCCC(=O)O` [Palmitic Acid (free form), Palmitic Acid], the “7-cis-C16:1 Production” value is given as “Poor” and the “Bifidobacteria Growth” value is on record as “Poor”.
`CCCCCCCCCCCCCCCC(=O)OC` [Palmitic Acid Methyl Ester]: the “7-cis-C16:1 Production” value is reported as “Poor” and the “Bifidobacteria Growth” value is “Poor”.
With `O=C([O-])[O-].[K+].[K+]` [Potassium Carbonate], the “7-cis-C16:1 Production” value is “Poor” and the “Bifidobacteria Growth” value is given as “Poor”.
Turning to `O=C([O-])O.[K+]` [Potassium Hydrogen Carbonate], the “7-cis-C16:1 Production” value is given as “Fair” and the “Bifidobacteria Growth” value is reported as “Poor”.
As to `O=C([O-])[O-].[Na+].[Na+]` [Sodium Carbonate], the “7-cis-C16:1 Production” value is recorded as “Poor” and the “Bifidobacteria Growth” value is reported as “Poor”.
With `O=C([O-])O.[Na+]` [Sodium Hydrogen Carbonate], the “7-cis-C16:1 Production” value was “Poor” and the “Bifidobacteria Growth” value was “Poor”.
Consider Anisidine, for which the “7-cis-C16:1 Production” value was “Good” and the “Bifidobacteria Growth” value is “Good”.
With Polysorbate 80, the “7-cis-C16:1 Production” value is reported as “Poor” and the “Bifidobacteria Growth” value is listed as “Good”.
The matching figures for Tergitol NP40: “Good” and “Good”.
The matching figures for Triton X-100: “Poor” and “Poor”.

Another test shares this test system. Description: L-cysteine concentration in MRS liquid medium, production of 7-cis-hexadecenoic acid. It counts as cell-based. As to conditions: 5.0 g/L in MRS liquid medium. As for the experimental part:
MRS media with various amounts of L-cysteine added were prepared to investigate their effect on the production of 7-cis-hexadecenoic acid by bifidobacteria. Specifically, the test was performed as follows. Bifidobacterium sp. strain JCM7042 (strain JCM7042) was used as the Bifidobacterium. L-cysteine hydrochloride monohydrate was added at 0.001 g/L, 0.01 g/L, 0.1 g/L, 0.5 g/L, 1.0 g/L, and 5.0 g/L to the MRS liquid medium with the composition shown in Table 1 to prepare L-cysteine-containing MRS liquid media. These MRS liquid media with L-cysteine and the control MRS liquid medium (without added L-cysteine) were cultured in the same manner as in Example 1. Using the same methods and conditions as in Example 1, the 7-cis-hexadecenoic acid in each culture solution was quantified by gas chromatography (GC) analysis.
On to `Cl.N[C@@H](CS)C(=O)O.O` [L-Cysteine Hydrochloride (1-hydrate)], for which the “production of 7-cis-hexadecenoic acid” value was “greatly inhibited”.

The values above are taken from patent publication US20230383320A1, “METHOD FOR PRODUCING MONOUNSATURATED FATTY ACID HAVING 16 CARBON ATOMS” (SHIZUOKA PREFECTURAL UNIVERSITY CORPORATION, priority 2022, published 2023).
